ChEMBL document CHEMBL6096654, “Allosteric inhibition of PTP1B by bromocatechol-chalcone derivatives” (Eur J Med Chem, 2025)

Tests used:
[1] = molecular target: T1, Tyrosine-protein phosphatase non-receptor type 11 (Homo sapiens, UniProt Q06124); experiment: Inhibition of SHP2 (unknown origin) using pNPP as substrate incubated for 30 mins by spectrophotometry
T1 sequence (Q06124 whole entry): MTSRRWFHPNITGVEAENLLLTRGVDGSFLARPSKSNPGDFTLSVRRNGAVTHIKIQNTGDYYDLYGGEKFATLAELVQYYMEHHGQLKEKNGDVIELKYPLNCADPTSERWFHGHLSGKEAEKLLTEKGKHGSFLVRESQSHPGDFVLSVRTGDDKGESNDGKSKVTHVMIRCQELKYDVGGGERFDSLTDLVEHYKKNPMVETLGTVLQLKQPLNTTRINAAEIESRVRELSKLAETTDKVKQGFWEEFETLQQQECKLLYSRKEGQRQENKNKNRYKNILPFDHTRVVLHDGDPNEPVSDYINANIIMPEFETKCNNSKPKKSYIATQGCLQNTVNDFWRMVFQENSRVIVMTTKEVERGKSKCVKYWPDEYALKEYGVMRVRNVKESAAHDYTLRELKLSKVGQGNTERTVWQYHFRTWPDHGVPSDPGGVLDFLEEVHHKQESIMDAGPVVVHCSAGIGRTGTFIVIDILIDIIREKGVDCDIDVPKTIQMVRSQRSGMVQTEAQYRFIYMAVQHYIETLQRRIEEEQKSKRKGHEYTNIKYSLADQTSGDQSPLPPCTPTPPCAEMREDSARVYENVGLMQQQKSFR

[2] = molecular target: T2, Tyrosine-protein phosphatase non-receptor type 1 (Homo sapiens, UniProt P18031); experiment: Allosteric inhibition of PTP1B (unknown origin) using pNPP as substrate incubated for 30 mins by spectrophotometry
T2 sequence (P18031 whole entry): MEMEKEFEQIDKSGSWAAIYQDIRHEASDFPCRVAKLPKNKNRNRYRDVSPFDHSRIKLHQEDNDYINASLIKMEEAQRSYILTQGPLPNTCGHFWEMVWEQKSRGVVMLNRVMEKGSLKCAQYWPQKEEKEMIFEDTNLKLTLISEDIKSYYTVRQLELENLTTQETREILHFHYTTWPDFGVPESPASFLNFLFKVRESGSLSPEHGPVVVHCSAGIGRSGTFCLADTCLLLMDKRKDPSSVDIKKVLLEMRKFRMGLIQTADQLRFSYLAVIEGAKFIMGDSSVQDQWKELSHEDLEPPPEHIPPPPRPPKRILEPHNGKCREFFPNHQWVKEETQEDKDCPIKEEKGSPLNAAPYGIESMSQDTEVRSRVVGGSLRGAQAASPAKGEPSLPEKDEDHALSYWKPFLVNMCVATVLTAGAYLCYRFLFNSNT

[3] = molecular target: T3, Tyrosine-protein phosphatase non-receptor type 2 (Homo sapiens, UniProt P17706); experiment: Inhibition of TCPTP (unknown origin) using pNPP as substrate incubated for 30 mins by spectrophotometry
T3 sequence (P17706 whole entry): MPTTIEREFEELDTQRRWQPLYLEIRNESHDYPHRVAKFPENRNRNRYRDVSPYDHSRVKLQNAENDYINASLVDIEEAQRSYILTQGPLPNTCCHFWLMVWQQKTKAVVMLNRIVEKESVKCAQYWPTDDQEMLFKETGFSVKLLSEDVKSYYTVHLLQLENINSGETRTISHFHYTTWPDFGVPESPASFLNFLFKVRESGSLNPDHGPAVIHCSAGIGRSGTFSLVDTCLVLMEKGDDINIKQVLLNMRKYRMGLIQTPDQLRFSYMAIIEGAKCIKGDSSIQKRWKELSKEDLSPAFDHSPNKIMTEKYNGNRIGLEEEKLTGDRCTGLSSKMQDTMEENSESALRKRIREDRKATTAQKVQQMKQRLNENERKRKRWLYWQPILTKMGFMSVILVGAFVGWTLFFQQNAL

[4] = Inhibition of PTP1B N193A/K197A mutant (unknown origin) using pNPP as substrate incubated for 30 mins by spectrophotometry; parameters: species or system Homo sapiens

Structure (SMILES) | IC50 [1] [µM] | IC50 [2] [µM] | IC50 [3] [µM] | IC50 [4] [µM]
O=C(/C=C/c1cc(O)c(O)c(Br)c1Br)c1cccc(C(F)(F)F)c1 | > 20 | 3.59 | 13.6 | 15.7
O=C(/C=C/c1cc(O)c(O)c(Br)c1Br)c1ccc(Cl)c(Cl)c1 | > 20 | 3.02 | 16 | 11.4
Cc1ccccc1C(=O)/C=C/c1cc(O)c(O)c(Br)c1Br | > 20 | 1.71 | 9.4 | 8.01
O=C(/C=C/c1cc(O)c(O)c(Br)c1Br)c1ccc(Cl)cc1 | > 20 | 2.15 | 9.7 | 12.6
O=C(/C=C/c1cc(O)c(O)c(Br)c1Br)c1ccccc1Cl | > 20 | 2.17 | 5.74 | 10.5
Cc1ccc(C(=O)/C=C/c2cc(O)c(O)c(Br)c2Br)cc1 | > 20 | 2 | 10.3 | 10.2
COc1ccc(C(=O)/C=C/c2cc(O)c(O)c(Br)c2)cc1Br | > 20 | 2.45 | 13.4 | 9.07
COc1ccc(C(=O)/C=C/c2cc(O)c(O)c(Br)c2Br)cc1Br | > 20 | 1.43 | 3.74 | 9.11
O=C(/C=C/c1cc(O)c(O)c(Br)c1Br)c1cccc(Cl)c1 | > 20 | 2.59 | 8.97 | 12.7
O=C(/C=C/c1cc(O)c(O)c(Br)c1)c1cc(Br)c(O)c(Br)c1 | > 20 | 2.54 | 15 | 12.6
CCOc1ccc(C(=O)/C=C/c2cc(O)c(O)c(Br)c2Br)cc1 | > 20 | 3.25 | 17.3 | 9.18
